Activity calls are given as the source filed them. No cut-off for these calls is given here.
Experiments:
KB 3-1 = assay: Cytotoxicity against human KB-3-1cells incubated for 24 hrs by MTT assay; assay type: toxicity, cell-based; details: kb 3-1, 24 h
HeLa = assay: Cytotoxicity against human HeLa cells incubated for 24 hrs by MTT assay; assay type: toxicity, cell-based
Escherichia coli = assay: Antibacterial activity against Escherichia coli DH5a incubated for 18 hrs by spectrophotometric based microdilution assay; assay type: functional, organism-based

Compound | Activity (KB 3-1) | Activity (HeLa) | Activity (Escherichia coli)
C=C([C@@H]1CC=C(C)CC1)[C@@H](O)[C@H]1C[C@@H](C)C(=O)O1 | Non-Toxic | Non-Toxic | 
C=C([C@H]1CC=C(C)CC1)[C@@H](O)[C@H]1C[C@@H](C)C(=O)O1 | Non-Toxic | Non-Toxic | inactive
C=C([C@@H]1CC=C(C)CC1)[C@H](O)[C@H]1C[C@@H](C)C(=O)O1 | Non-Toxic | Non-Toxic | inactive
C=C([C@H]1CC=C(C)CC1)[C@H](O)[C@H]1C[C@@H](C)C(=O)O1 | Non-Toxic | Non-Toxic | 

From ChEMBL document CHEMBL5376008, “Total Synthesis, Revised Structure, and Biological Evaluation of Elgonene B and Analogues” (J Nat Prod, 2024)
